# In ChEMBL document CHEMBL3044578, “Synthesis, insecticidal activity, and molecular docking studies of nitenpyram analogues with a flexible ester arm anchored on tetrahydropyrimidine ring” (2011):
# Assays:
# Type in all cases: functional
# [1] = system: Nilaparvata lugens; assay: Insecticidal activity against Nilaparvata lugens (brown planthopper) assessed as mortality at 100 mg/l after 72 hr
# [2] = system: Nilaparvata lugens; assay: Insecticidal activity against Nilaparvata lugens (brown planthopper) assessed as mortality at 500 mg/l after 72 hr
# [3] = system: Nilaparvata lugens; assay: Insecticidal activity against Nilaparvata lugens (brown planthopper) assessed as mortality at 20 mg/l after 72 hr
# [4] = system: Nilaparvata lugens; assay: Insecticidal activity against Nilaparvata lugens (brown planthopper) assessed as mortality after 72 hr
Structure (SMILES),mortality at 100 µg/mL [1] [%],mortality at 500 µg/mL [2] [%],mortality at 20 µg/mL [3] [%],LC50 [4] [µg/mL]
CCN(Cc1ccc(Cl)nc1)C1=C([N+](=O)[O-])CN(CC(=O)OCC(C)C)CN1C,100,100,68,–
CCN(Cc1ccc(Cl)nc1)C1=C([N+](=O)[O-])CN(CCCC(=O)OCC(C)C)CN1C,100,100,54,–
CCC(C)OC(=O)CN1CC([N+](=O)[O-])=C(N(CC)Cc2ccc(Cl)nc2)N(C)C1 (configuration not stated),79,100,53,–
CCCCOC(=O)CCN1CC([N+](=O)[O-])=C(N(CC)Cc2ccc(Cl)nc2)N(C)C1,92,100,78,–
CCOC(=O)CN1CC([N+](=O)[O-])=C(N(CC)Cc2ccc(Cl)nc2)N(C)C1,100,100,94,–
CCN(Cc1ccc(Cl)nc1)C1=C([N+](=O)[O-])CN(CCCC(=O)OC(C)C)CN1C,100,100,58,–
CCCOC(=O)CCN1CC([N+](=O)[O-])=C(N(CC)Cc2ccc(Cl)nc2)N(C)C1,100,100,100,0.194
CCN(Cc1ccc(Cl)nc1)C1=C([N+](=O)[O-])CN(CC(=O)OC)CN1C,94,100,86,–
CCCCOC(=O)CN1CC([N+](=O)[O-])=C(N(CC)Cc2ccc(Cl)nc2)N(C)C1,75,100,67,–
CCN(Cc1ccc(Cl)nc1)C1=C([N+](=O)[O-])CN(CCCC(=O)OC(C)(C)C)CN1C,68,100,36,–
CCOC(=O)CCN1CC([N+](=O)[O-])=C(N(CC)Cc2ccc(Cl)nc2)N(C)C1,100,100,93,–
CCOC(=O)CCCN1CC([N+](=O)[O-])=C(N(CC)Cc2ccc(Cl)nc2)N(C)C1,100,100,85,–
CCC(C)OC(=O)CCCN1CC([N+](=O)[O-])=C(N(CC)Cc2ccc(Cl)nc2)N(C)C1 (configuration not stated),93,100,59,–
CCN(Cc1ccc(Cl)nc1)C1=C([N+](=O)[O-])CN(CCC(=O)OCC(C)C)CN1C,100,100,52,–
CCCCOC(=O)CCCN1CC([N+](=O)[O-])=C(N(CC)Cc2ccc(Cl)nc2)N(C)C1,100,100,82,–
CCN(Cc1ccc(Cl)nc1)/C(=C/[N+](=O)[O-])NC [NITENPYRAM],100,100,100,0.129
O=[N+]([O-])/N=C1\NCCN1Cc1ccc(Cl)nc1 [IMIDACLOPRID],100,100,100,0.108
CCN(Cc1ccc(Cl)nc1)C1=C([N+](=O)[O-])CN(CCC(=O)OC)CN1C,100,100,95,–
CCN(Cc1ccc(Cl)nc1)C1=C([N+](=O)[O-])CN(CCCC(=O)OC)CN1C,100,100,79,–
CCCOC(=O)CCCN1CC([N+](=O)[O-])=C(N(CC)Cc2ccc(Cl)nc2)N(C)C1,100,100,43,–
CCN(Cc1ccc(Cl)nc1)C1=C([N+](=O)[O-])CN(CCC(=O)OC(C)(C)C)CN1C,81,100,66,–
CCC(C)OC(=O)CCN1CC([N+](=O)[O-])=C(N(CC)Cc2ccc(Cl)nc2)N(C)C1 (configuration not stated),100,100,84,–
CCN(Cc1ccc(Cl)nc1)C1=C([N+](=O)[O-])CN(CC(=O)OC(C)C)CN1C,85,100,76,–
CCN(Cc1ccc(Cl)nc1)C1=C([N+](=O)[O-])CN(CC(=O)OC(C)(C)C)CN1C,73,100,47,–
CCN(Cc1ccc(Cl)nc1)C1=C([N+](=O)[O-])CN(CCC(=O)OC(C)C)CN1C,100,100,100,0.162
CCCOC(=O)CN1CC([N+](=O)[O-])=C(N(CC)Cc2ccc(Cl)nc2)N(C)C1,96,100,73,–
